Patent EP0528699B1, “Saishin N derivatives, process for their preparation and anti-ulcer agents containing them” (TOKYO TANABE COMPANY LIMITED, priority 1991, dated 1993)
Where a name gives a salt, the structure may show the parent alone. Read-outs that look alike come from different tables or passages of the source. Marks after values point to notes of the source that are not given here.

Assays:
Shay's Ulcers = assay: Shay's Ulcers; format: in vivo, male Wister rats; settings: Rattus norvegicus, intraduodenal, 14 h, read-out: Shay, inhibiting ratio; for inhibition in vivo at 300 mg/kg: dose 300 mg/kg intraduodenally immediately after the ligation; for inhibition in vivo at 50 mg/kg: dose 50 mg/kg intraduodenally immediately after the ligation
Method: (§1) Experiments on Hydrochloric acid-Ethanol-Induced Ulcers, Aspirin-Induced Ulcers, Water-Immersion stress-Induced Ulcers, Shay's Ulcers and Serotonin-Induced Ulcers were carried out using male Wister rats weighing about 200g in groups of six. Experiments on Ischemia-Reperfusion -Induced Gastric Lesions were carried out using male SD rats weighing about 250g in groups of six. Other than for the tests on Ischemia-Reperfusion-Induced Gastric Lesions Models, the test compounds were prepared by mixing thoroughly with polyethyleneglycol and 0.5% sodium carboxymethyl cellulose solution and emulsifying vigorously. Activities against respective ulcer models were evaluated by an inhibiting ratio obtained by dividing the difference between the ulceration indexes of the non-administered group and the test compound group by the non-administered group.
In each rat which had been fasted for 48 hours, the pyloric end of stomach was ligated, and each was kept without giving any food or water for 14 hours. Each rat was then slaughtered, and area of ulcer formed in the forestomach was measured and ulceration inded was calculated based on the area. The test compound was administered intraduodenally immediately after the ligation.
(§2) The results of Aspirin-Induced Ulcers, Water-immersion stress-Induced Ulcers, Shay's Ulcers, Serotonin-induced Ulcers and Ischemia-Reperfusion-Induced Gastric lesions are shown in Table 3.

Serotonin-Induced Ulcers = assay: Serotonin-Induced Ulcers; format: in vivo, male Wister rats; settings: Rattus norvegicus, 4.5 h, read-out: Serotonin, inhibiting ratio; for inhibition in vivo at 20 mg/kg: dose 20 mg/kg intraduodenally 30 minutes before Serotonin creatinine sulfate 30 mg/kg subcutaneously; for inhibition in vivo at 50 mg/kg: dose 50 mg/kg intraduodenally 30 minutes before Serotonin creatinine sulfate 30 mg/kg subcutaneously
Method: as §1
To each rat which had been fasted for 24 hours, 30 mg/kg of a solution of serotonin creatinine sulfate in a saline solution was administered subcutaneously. Each rat was then slaughtered after 4 and a half hours and area of gastric mucosal lesion formed facing the center line of greater curvature of the corpus ventriculi of stomach was measured and ulceration index was calculated based on the area. The test compound was administered intraduodenally 30 minutes before the administration of the Serotonin creatinine sulfate.
as §2

Aspirin-Induced Ulcers = assay: Aspirin-Induced Ulcers; format: in vivo, male Wister rats; settings: Rattus norvegicus, 9 h, 5 minutes before 150 mg/kg of aspirin orally, read-out: Aspirin, inhibiting ratio; for inhibition in vivo at 50 mg/kg: dose 50 mg/kg intraduodenally at pylorus ligation
Method: as §1
In each rat which had been fasted for 24 hours, the pyloric end of the stomach was ligated, and simultaneously the test compound was administered intraduodenally, and after 5 minutes, 150 mg/kg of aspirin was administered orally, respectively. After 9 hours from ligation, each rat was slaughtered, a length of ulcer formed at the fundus gland area of stomach was measured and ulceration index was calculated based on the length.
as §2

[1] = system: Water-Immersion stress-Induced Ulcers; assay: Water-Immersion stress-Induced Ulcers; format: in vivo, male Wister rats; settings: Rattus norvegicus, po, 10 h, read-out: Water-Immersion Stress, inhibiting ratio; for inhibition in vivo at 50 mg/kg: dose 50 mg/kg orally 10 minutes before the exposure to stress; for inhibition in vivo at 20 mg/kg: dose 20 mg/kg orally 10 minutes before the exposure to stress
Method: as §1
Each rat which had been fasted for 15 hours was immobilized in a stress cage and immersed to chest depth in a water bath at 21°C. Each rat was slaughtered after 10 hours, a length of ulcer formed at the fundus gland area of stomach was measured and ulceration index was calculated based on the length. The test compound was administered orally 10 minutes before the exposure to stress.
as §2

[2] = system: Hydrochloric acid-Ethanol-Induced Ulcers; assay: Hydrochloric acid-Ethanol-Induced Ulcers; format: in vivo, male Wister rats; settings: Rattus norvegicus, intraduodenal, read-out: Inhibition ratio(%); for inhibition in vivo at 10 mg/kg: dose 10 mg/kg intraduodenally one hour before hydrochloric acid - 60% ethanol
Method: as §1
To each rat which had been fasted for 24 hours was orally administered 0.5ml of a mixed solution of 150 mM hydrochloric acid - 60% ethanol per 100g of weight. Each rat was slaughtered after one hour, a length of ulcer formed at the fundus gland area of stomach was measured and ulceration index was calculated based on the length. The test compound was administered intraduodenally one hour or three hours before the administration of mixed solution of hydrochloric acid - 60% ethanol.

[3] = system: Ischemia-Reperfusion-Induced Gastric Lesions; assay: Ischemia-Reperfusion-Induced Gastric Lesions; format: in vivo, male SD rats; settings: dose 40 mg/kg in dimethylsulfoxide from the caudal artery 30 minutes before beginning collection of the blood
Method: as §1
Each rat which had been fasted for 24 hours was anesthetized intraperitoneally with Nembutal and immobilized on a constant temperature pad in a dorsal position. After tracheotomy was performed, blood pressure was measured via a transducer for blood pressure from a cannula inserted in right carotid. The abdomen was opened, and the gastroesophageal junction was ligated. A tube was then passed through the duodenostomy into the stomach and the gastric lumen was lavaged with warm saline. 1 ml of 0.1N hydrochloric acid per 100g body weight was instilled into the stomach via the gastric tube and the pylorus was ligated. When the blood pressure became stable, 2% of weight (w/w) of the blood was collected from a cannula inserted in the left carotid into a syringe containing a heparin added saline solution. After 20 minutes, the collecting blood was retransfused and each rat was left to stand for 20 minutes, and slaughtered and the area of gastric mucosal lesions was measured and ulceration index was calculated based on the area. The test compound was dissolved in dimethylsulfoxide and administered at a dose of 40 mg/kg from the caudal artery 30 minutes before beginning collection of the blood.
as §2

[4] = 3 h, Table 1, dose 20 mg/kg intraduodenally three hours before hydrochloric acid - 60% ethanol

## CC1=CC(O)C(O)C(C)(C)CC1=O (centres unmarked) [Saishin N, 4,5-dihydroxy-2,6,6-trimethyl-2-cycloheptene-1-one]
Shay's Ulcers; dose 100 mg/kg intraduodenally immediately after the ligation
  inhibition in vivo at 100 mg/kg: 49%
Shay's Ulcers
  inhibition in vivo at 300 mg/kg: 58%
Serotonin-Induced Ulcers
  inhibition in vivo at 20 mg/kg: 13%
  inhibition in vivo at 50 mg/kg: 36%
Aspirin-Induced Ulcers
  inhibition in vivo at 50 mg/kg: 52%
Aspirin-Induced Ulcers; dose 100 mg/kg intraduodenally at pylorus ligation
  inhibition in vivo at 100 mg/kg: 60%
[1]
  inhibition in vivo at 50 mg/kg: 49%
[1]; dose 100 mg/kg orally 10 minutes before the exposure to stress
  inhibition in vivo at 100 mg/kg: 62%
[2]; 1 h, Table 2
  inhibition in vivo at 10 mg/kg: 35%
[2]; 1 h, Table 2, dose 20 mg/kg intraduodenally one hour before hydrochloric acid - 60% ethanol
  inhibition in vivo at 20 mg/kg: 88%
[2]; [4]
  inhibition in vivo at 20 mg/kg: 15%
[2]; 3 h, Table 1, dose 50mg/kg intraduodenally three hours before hydrochloric acid - 60% ethanol
  inhibition in vivo at 50 mg/kg: 83%

## NC[C@H]1CC[C@H](C(=O)Oc2ccc(CCC(=O)O)cc2)CC1 [Cetraxatehydrochloride, reference compound]
Shay's Ulcers
  inhibition in vivo at 300 mg/kg: 11%
Aspirin-Induced Ulcers; dose 300 mg/kg intraduodenally at pylorus ligation
  inhibition in vivo at 300 mg/kg: 33%
[1]; dose 300 mg/kg orally 10 minutes before the exposure to stress
  inhibition in vivo at 300 mg/kg: 45%

## CC1=CC(O)C(OC(=O)C=Cc2ccccc2)C(C)(C)CC1=O (centres unmarked) [AU205, 5-cinnamoyloxy-4-hydroxy-2,6,6-trimethyl-2-cyclohepten-1-one]
Shay's Ulcers
  inhibition in vivo at 50 mg/kg: 50%
Serotonin-Induced Ulcers
  inhibition in vivo at 20 mg/kg: 80%
Aspirin-Induced Ulcers
  inhibition in vivo at 50 mg/kg: 53%
[1]
  inhibition in vivo at 20 mg/kg: 42%
[2]; [4]
  inhibition in vivo at 20 mg/kg: 83%

## COC1C=C(C)C(=O)CC(C)(C)C1OC(=O)c1ccc(N)cc1N (centres unmarked) [AU408, 5-(2,4-diaminobenzoyloxy)-4-methoxy-2,6,6-trimethyl-2-cyclohepten-1-one]
Shay's Ulcers
  inhibition in vivo at 50 mg/kg: 43%
Serotonin-Induced Ulcers
  inhibition in vivo at 20 mg/kg: 44%
Aspirin-Induced Ulcers
  inhibition in vivo at 50 mg/kg: 73%
[3]
  Ischemia-Reperfusion, inhibiting ratio: 75(40)**
[1]
  inhibition in vivo at 50 mg/kg: 56%
[2]; [4]
  inhibition in vivo at 20 mg/kg: 58%

## CC1=CC(OC(=O)c2cccn2C)C(O)C(C)(C)CC1=O (centres unmarked) [AU501, 4-(1-methyl-2-pyrrolylcarbonyloxy)-5-hydroxy-2,6,6-trimethyl-2-cyclohepten-1-one]
Serotonin-Induced Ulcers
  inhibition in vivo at 50 mg/kg: 55%
Aspirin-Induced Ulcers
  inhibition in vivo at 50 mg/kg: 30%
[3]
  Ischemia-Reperfusion, inhibiting ratio: 77(40)**
[1]
  inhibition in vivo at 50 mg/kg: 22%
[2]; [4]
  inhibition in vivo at 20 mg/kg: 56%

## COC12CC(C)(C)C(O1)C(O)CC2C (stereo not drawn) [AU105B, 2,4-cis-1-methoxy-2,6.6-trimethyl-8-oxabicyclo [3.2.1] octan-4-ol]
Shay's Ulcers
  inhibition in vivo at 50 mg/kg: 44%
Serotonin-Induced Ulcers
  inhibition in vivo at 20 mg/kg: 80%
[3]
  Ischemia-Reperfusion, inhibiting ratio: 52(40)*
[1]
  inhibition in vivo at 20 mg/kg: 65%
[2]; 1 h, Table 2
  inhibition in vivo at 10 mg/kg: 86%
[2]; [4]
  inhibition in vivo at 20 mg/kg: 63%

## CC1=CC(OC(=O)c2ccccc2)C(O)C(C)(C)CC1=O (centres unmarked) [AU190, 4-benzoyloxy-5-hydroxy-2,6,6-trimethyl-2-cyclohepten-1-one]
Shay's Ulcers
  inhibition in vivo at 50 mg/kg: 55%
Serotonin-Induced Ulcers
  inhibition in vivo at 20 mg/kg: 69%
Aspirin-Induced Ulcers
  inhibition in vivo at 50 mg/kg: 55%
[1]
  inhibition in vivo at 50 mg/kg: 45%
[2]; [4]
  inhibition in vivo at 20 mg/kg: 66%

## CC1=CC(OC(=O)c2ccc([N+](=O)[O-])cc2)C(O)C(C)(C)CC1=O (centres unmarked) [AU212, 5-hydroxy-4-(4-nitrobenzoyloxy)-2,6,6-trimethyl-2-cyclohepten-1-one]
Shay's Ulcers
  inhibition in vivo at 50 mg/kg: 75%
Serotonin-Induced Ulcers
  inhibition in vivo at 20 mg/kg: 71%
Aspirin-Induced Ulcers; dose 20 mg/kg intraduodenally at pylorus ligation
  inhibition in vivo at 20 mg/kg: 46%
[3]
  Ischemia-Reperfusion, inhibiting ratio: 63(40)**
[1]
  inhibition in vivo at 20 mg/kg: 48%
[2]; [4]
  inhibition in vivo at 20 mg/kg: 90%

## COC12CC(C)(C)C(O1)C(OC(=O)c1ccc(N)cc1)C=C2C (centres unmarked) [AU245, 4-(4-aminobenzoyloxy)-1-methoxy-2,6,6-trimethyl-8-oxabicyclo [3.2.1] oct-2-ene]
Shay's Ulcers
  inhibition in vivo at 50 mg/kg: 35%
Serotonin-Induced Ulcers
  inhibition in vivo at 20 mg/kg: 38%
Aspirin-Induced Ulcers
  inhibition in vivo at 50 mg/kg: 63%
[3]
  Ischemia-Reperfusion, inhibiting ratio: 93(40)**
[1]
  inhibition in vivo at 20 mg/kg: 38%
[2]; [4]
  inhibition in vivo at 20 mg/kg: 58%

## CC1=CC(OC(=O)c2ccc(N)cc2)C(O)C(C)(C)CC1=O (centres unmarked) [AU215, 4-(4-aminobenzoyloxy)-5-hydroxy-2,6,6-trimethyl-2-cyclohepten-1-one]
Shay's Ulcers
  inhibition in vivo at 50 mg/kg: 73%
Serotonin-Induced Ulcers
  inhibition in vivo at 20 mg/kg: 81%
Aspirin-Induced Ulcers
  inhibition in vivo at 50 mg/kg: 66%
[3]
  Ischemia-Reperfusion, inhibiting ratio: 90(40)**
[1]
  inhibition in vivo at 20 mg/kg: 45%
[2]; [4]
  inhibition in vivo at 20 mg/kg: 56%

## COC1C(O)C=C(C)C(=O)CC1(C)C (centres unmarked) [AU222, 4-hydroxy-5-methoxy-2,6,6-trimethyl-2-cyclohepten-1-one]
Shay's Ulcers
  inhibition in vivo at 50 mg/kg: 58%
Serotonin-Induced Ulcers
  inhibition in vivo at 20 mg/kg: 84%
Aspirin-Induced Ulcers
  inhibition in vivo at 50 mg/kg: 28%
[1]
  inhibition in vivo at 20 mg/kg: 34%
[2]; [4]
  inhibition in vivo at 20 mg/kg: 54%
